Where “and” joins values, the source holds several entries; their conditions need not be identical. Identical values can stand only once. After the bases stand the sugars from the 5' end (letter, count) and the backbone: PS all phosphorothioate, else s phosphorothioate and o phosphodiester by linkage. Methylation of C is not given here. k = constrained ethyl (cEt); d = 2'-deoxy (DNA)

Consider 99 sequences from the OligoGym collection.

For this data set, the target named is MALAT1. To be noted: ASO, A431, 0.005 µM.
For the sequence TACTCCAAGCATTGGG (sugars k3 d10 k3, PS), the target mRNA inhibition turned out to be 0%. Then AGATTAGTAGTCAAAG (sugars k3 d10 k3, PS), with -12%. For AACAAGTAAGCCCCAC (sugars k3 d10 k3, PS), the target mRNA inhibition stood at 11%. For GAAGTGTACTATCCCA (sugars k3 d10 k3, PS) the value was 72% and 93%; for TACTGGTTTAAGTTGG (sugars k3 d10 k3, PS), 67% and 77%; for CTACAACAAGTAAGCC (sugars k3 d10 k3, PS), 7%. Then GGAACAAGTCCTACAA (sugars k3 d10 k3, PS), with 23%; and TGTATATAGTTCAAAG (sugars k3 d10 k3, PS), with 9%. For CCTACCACTCTAAGAT (sugars k3 d10 k3, PS) the value was 27%; for ATAGTGTAAAACATTG (sugars k3 d10 k3, PS), 0%; for GCATACCTTAACATCT (sugars k3 d10 k3, PS), 54% and 44%. For the sequence GATTCTAACAGCACAT (sugars k3 d10 k3, PS), the target mRNA inhibition was 31%. For ATAACGAAGAGATACC (sugars k3 d10 k3, PS) the value was 6%; for TTATCTGTTAACAGCT (sugars k3 d10 k3, PS), 31%. Consider TTATAATAGAGCTACT (sugars k3 d10 k3, PS), for which the target mRNA inhibition was determined as 4%. For CCAAGAACTAGCACCT (sugars k3 d10 k3, PS) the value was -22%; for TTTAAAAGATCGCCTT (sugars k3 d10 k3, PS), 50%; for ACAGGAAGGCTCCATG (sugars k3 d10 k3, PS), 25%.

In the case of CAGTTGCCGCCAGCCC (sugars k3 d10 k3, PS), the target mRNA inhibition was -3%. For CCATAACTGATCTGAC (sugars k3 d10 k3, PS), the target mRNA inhibition is 13%.

With TGGCCCTTCGCATACG (sugars k3 d10 k3, PS), the target mRNA inhibition stood at 28%. With AGTGTTCGCAGACAAA (sugars k3 d10 k3, PS), the target mRNA inhibition was 34%. Then CATGCCAGTTACTCCA (sugars k3 d10 k3, PS), with 33%; and TGAACTATCACAATTC (sugars k3 d10 k3, PS), with 24%. Then CTTCAGACAAGATTCA (sugars k3 d10 k3, PS), with 24%; and AATCCTGATCTGGTCC (sugars k3 d10 k3, PS), with 46% and 66%; and ATTTATAGACCCCTGA (sugars k3 d10 k3, PS), with -8%. For ACCTTAACATCTTGTT (sugars k3 d10 k3, PS) the value was 15%; for GAGAACAACTCGCATC (sugars k3 d10 k3, PS), 20%; for GTCTCGGGCTGCAGGC (sugars k3 d10 k3, PS), -6%. Consider CCAAGCCAAGCCGCCT (sugars k3 d10 k3, PS), for which the target mRNA inhibition came out at 5%. For AATCACTACTCCAAGC (sugars k3 d10 k3, PS) the value was 29%; for TCCTACCACTCCCAAT (sugars k3 d10 k3, PS), 30%; for GTTACGAAAGTCCTTC (sugars k3 d10 k3, PS), 45%. Then CATCAAGGCACTGATC (sugars k3 d10 k3, PS), with 13%; and CTAGGATCCTCTACGC (sugars k3 d10 k3, PS), with 11%. Then CAGACCAACCCCCAGT (sugars k3 d10 k3, PS), with -7%; and TATGACACTTTCCTTG (sugars k3 d10 k3, PS), with 25%; and TTAATGCACTGGTACA (sugars k3 d10 k3, PS), with 22%. Turning to GGTCATCTATTCACAA (sugars k3 d10 k3, PS), the target mRNA inhibition came out at 29%.

For GCTGTGGTTTTAATAC (sugars k3 d10 k3, PS), the target mRNA inhibition is 49% and 57%. For CTTCACCAAATCGCAC (sugars k3 d10 k3, PS) the value was -13%. Then ACATTAAGTTGGTAAT (sugars k3 d10 k3, PS), with 4%; and CTAAGCGAATGGCTTT (sugars k3 d10 k3, PS), with 22%. For GAAATCGGAGCAGCAC (sugars k3 d10 k3, PS) the value was 1%; for ATTGGGAGTTACTTGC (sugars k3 d10 k3, PS), 63% and 85%. Consider GTTATATTAGGTTCTC (sugars k3 d10 k3, PS), for which the target mRNA inhibition came out at 7%.

On to AATTACACCAGTCCTT (sugars k3 d10 k3, PS), for which the target mRNA inhibition was determined as 42%. Then TAAATACCACCACCTG (sugars k3 d10 k3, PS), with 2%; and GAGAAACCTACAACAC (sugars k3 d10 k3, PS), with 11%; and GTCCTTTACAGAAGTC (sugars k3 d10 k3, PS), with 35%. In the case of GCCTATAAGGACAGCT (sugars k3 d10 k3, PS), the target mRNA inhibition amounted to 11%. TCAATCACAAATACGA (sugars k3 d10 k3, PS): the target mRNA inhibition came to 30%.

For the sequence CTTCGCCTTCCCGTAC (sugars k3 d10 k3, PS), the target mRNA inhibition stood at 35%. AACCTATTGACTATAT (sugars k3 d10 k3, PS): the target mRNA inhibition amounted to 19%. For CTAAGACTTTAAGTTC (sugars k3 d10 k3, PS) the value was 27%. Then TTTATAGACCCCTGAC (sugars k3 d10 k3, PS), with 22%; and AATCGCCATGGAAAGC (sugars k3 d10 k3, PS), with -4%. For AAATGGCGGACTTTCT (sugars k3 d10 k3, PS) the value was 17%; for GCCTTCCCGTACTTCT (sugars k3 d10 k3, PS), 60% and 53%. Take TAGGTATAGTTTACCA (sugars k3 d10 k3, PS): the target mRNA inhibition turned out to be 2%.

As for AGCACCGCTTGAGATT (sugars k3 d10 k3, PS), the target mRNA inhibition was 42% and 20%.

Consider CCTAGCTTCATCAAAC (sugars k3 d10 k3, PS), for which the target mRNA inhibition was -2%.

As to AAGTGGTTGCCCGCTT (sugars k3 d10 k3, PS), the target mRNA inhibition was 22%. In the case of TAGGCCATCATACTGC (sugars k3 d10 k3, PS), the target mRNA inhibition stood at 6%. Then TCTCAGGGTTATGCTT (sugars k3 d10 k3, PS), with 59% and 81%; and AAGCTACAACAAGTAA (sugars k3 d10 k3, PS), with 10%; and AGTGTGATAGTTCAGG (sugars k3 d10 k3, PS), with 7%. Then CTCACAAGGCAAATCG (sugars k3 d10 k3, PS), with -12%; and TTATTCCCCAATGGAG (sugars k3 d10 k3, PS), with 18%; and ATTAAAGAGTGTTCGC (sugars k3 d10 k3, PS), with 69% and 44%. Then TAAATCCCTTTACACC (sugars k3 d10 k3, PS), with 12%. For AACCCCAAGACCAAAC (sugars k3 d10 k3, PS), the target mRNA inhibition was 11%. Then AACTTGGAAGTTGATA (sugars k3 d10 k3, PS), with 19%; and CCACAAGGATCCAAGC (sugars k3 d10 k3, PS), with -20%. Then AGCCTTCGGTGCCTTT (sugars k3 d10 k3, PS), with 5%; and GGGCTTTACTTTCCAT (sugars k3 d10 k3, PS), with 16%; and CCAATACTTGTCTTAG (sugars k3 d10 k3, PS), with 64% and 52%. For GCCTCTATTGCCATGT (sugars k3 d10 k3, PS) the value was 30%; for CTACCATATCCAAACA (sugars k3 d10 k3, PS), 21%; for TCTCCGAAGACACAGA (sugars k3 d10 k3, PS), 0%. For the sequence TCTTACTTGATAATAC (sugars k3 d10 k3, PS), the target mRNA inhibition worked out at 10%.

For the sequence CTGCGGCCCCCCAGTT (sugars k3 d10 k3, PS), the target mRNA inhibition came out at 25%. As to CATGCAATACTGCAGA (sugars k3 d10 k3, PS), the target mRNA inhibition was 15%. For AGATCGCCTTCAAATT (sugars k3 d10 k3, PS) the value was 41%; for TTCGCCTTCCCGTACT (sugars k3 d10 k3, PS), 63%; for TTACTGGTTTAAGTTG (sugars k3 d10 k3, PS), 24%. For CCTTCTGAACCGGAGC (sugars k3 d10 k3, PS) the value was -4%; for GCCATGGAAAGCGAGT (sugars k3 d10 k3, PS), 9%.

For the sequence TTATCAATTCACCAAG (sugars k3 d10 k3, PS), the target mRNA inhibition was 25%. For TACACTCCTTCTCTAA (sugars k3 d10 k3, PS) the value was -18%. For CAGCTAAGATAGCAGC (sugars k3 d10 k3, PS) the value was 8%. For TGAAGCATACCTTAAC (sugars k3 d10 k3, PS) the value was 31%. With CCTTCCGCCGCCTTTG (sugars k3 d10 k3, PS), the target mRNA inhibition came to 21%. Then TACTCTTGATCTTGAA (sugars k3 d10 k3, PS), with 46%; and CTGCAAACTTTAGACA (sugars k3 d10 k3, PS), with 7%; and TACTATTGTCCCATAA (sugars k3 d10 k3, PS), with 22%. CGCTTAAGAGGGCAGG (sugars k3 d10 k3, PS): the target mRNA inhibition worked out at 12%. Then AAATCCCTTTACACCT (sugars k3 d10 k3, PS), with 23%.
